Measured values published in paper PMC8853664, “Protein visualization and manipulation in Drosophila through the use of epitope tags recognized by nanobodies” (eLife, 2022).

System: REPTOR
Assay: REPTOR localization in adult enterocytes after rapamycin treatment, detected with nanobody-GFP
Format: in vivo, Drosophila
Settings: rapamycin 50 µM in food, 15 hr; adult enterocytes co-expressing VHH05-REPTOR-127D01 and Nb127D01-GFP or NbVHH05-GFP; confocal imaging
From the text: To address whether NanoTagged POIs can be detected in vivo, we generated UAS-VHH05-REPTOR-127D01 flies. A previous study has shown that in S2 cells, the transcription factor REPTOR is enriched in the cytoplasm under normal conditions but translocates into the nucleus upon rapamycin treatment ([Tiebe et al., 2015]). To test whether the changes in REPTOR localization can be detected using the nanobodies, we co-expressed NanoTagged REPTOR along with Nb127D01-GFP or NbVHH05-GFP specifically in adult enterocytes (ECs). In the absence of a NanoTagged POI, Nb127D01-GFP and NbVHH05-GFP were detected in both the cytoplasm and nuclei (Figure 5G1). In contrast, when co-expressed with NanoTagged REPTOR, the nanobody-GFP signals were enriched in the cytoplasm of ECs under normal food conditions (Figure 5H and J). […] Similar changes were absent from ECs that express Nb127D01-GFP or NbVHH05-GFP alone (Figure 5G1).
For rapamycin treatment, rapamycin (LC Laboratories, R-5000) was dissolved in DMSO and mixed into the media when preparing food vials. The rapamycin dose was 50 µM. […]

CO[C@H]1C[C@@H]2CC[C@@H](C)[C@@](O)(O2)C(=O)C(=O)N2CCCC[C@H]2C(=O)O[C@H]([C@H](C)C[C@@H]2CC[C@@H](O)[C@H](OC)C2)CC(=O)[C@H](C)/C=C(\C)[C@@H](O)[C@@H](OC)C(=O)[C@H](C)C[C@H](C)/C=C/C=C/C=C/1C [rapamycin, Rapamycin]
REPTOR subcellular localization: leads to translocation of REPTOR into the nucleus
